Experimental data taken from patent US20260355318A1, “MOLECULAR MACHINES FOR TREATMENT OF CANCER, FUNGAL INFECTIONS, OR BACTERIAL INFECTIONS” (priority 2022, published 2026).

How the values were obtained:
C. albicans = experiment: Time-kill assay, C. albicans; type: cell-based, Candida albicans; conditions: C. albicans, 2×MIC, 405-nm light at 292 mW cm^−2
Procedure: For yeasts, five independent colonies were collected from 24-h SDAE plates, inoculated into yeast peptone with 2% dextrose (YPD), and grown for 24 h at 30 °C. Cells were then sub-cultured in fresh medium and grown for ~9 h. Afterward, the cells were centrifuged (5,000 ×g, 5 min), washed, and resuspended in phosphate-buffered saline (PBS) to ~10^6 CFU mL^−1. For A. fumigatus, conidia suspensions (~10^4 CFU mL^−1) were prepared in PBS as previously described.
Amphotericin B (AMB, 4×MIC) controls were prepared likewise, but light was omitted. Aliquots were collected in 1-min increments for up to 10 min, serially diluted in PBS, and plated on SDAE medium. Plates were incubated at 30 ° C for 48 h with confirmation after 72 h (yeasts) or at 28 ° C for 7 days with confirmation after 14 days (A. fumigatus), after which the CFU number was determined. The results were expressed as the logarithm of base 10 of the ratio between the CFU at each time point and the CFU at time 0. The detection limit of the method was ~1 log10 CFU mL^−1.

[1] = system: persister cells of A. baumannii; experiment: Persister eradication, A. baumannii; type: cell-based, Acinetobacter baumannii; conditions: 1×MIC, 405 nm
[2] = system: persister cells of P. aeruginosa; experiment: Persister eradication, P. aeruginosa; type: cell-based, Pseudomonas aeruginosa; conditions: 1×MIC, 405 nm
E. coli transcripts [3] = experiment: RNAseq of MM 1-treated E. coli; type: cell-based, Escherichia coli
Procedure: Three independent, well-isolated colonies of E. coli were cultured to mid-log phase in MHB media. Cells were collected and resuspended in PBS (1×) to an OD600 of ≈0.05. […] Cells were then irradiated for 5 min at 146 mW cm^−2 (43.8 J cm^−2). Bacterial cells were collected onto a 0.2 μm PES filter by low vacuum filtration. Two volumes of RNAprotect (Qiagen, Valencia, CA) were added to the cells, and the samples were then centrifuged at 5000 g for 25 min at 4 ° C to pellet cells. RNA was isolated using the RNeasy Mini Kit (Qiagen, Valencia, CA) per the manufacturer's instructions. RNA sequencing (RNAseq) and data analysis were performed by DNA Link Inc. (Seoul, Republic of Korea). RNA-Seq libraries were constructed by using TruSeq Stranded Total RNA with Ribo-Zero Plus rRNA Depletion Kit and sequenced on the Illumina NovaSeq6000 platform (Illumina, San Diego, CA) in the 100 nt, paired-end configuration. From each sample, an average of 70 million reads was obtained. For gene expression analysis, reads were trimmed with cutadapt (Magoc et al., 2013) and aligned to the reference genome of Escherichia coli str. K-12 substr. MG1655 (NC_000913) using EDGE-pro pipeline with default setting. Differential expression analysis was performed with DESeq2 in Bioconductor (Love et al., 2014). Gene annotation was performed using an in-house script based on NCBI reference annotations.

E. coli = experiment: Protein carbonyl levels, E. coli; type: cell-based, Escherichia coli; conditions: 1×MIC MM 1
E. coli transcripts [4] = experiment: GO enrichment analysis of transcripts more abundant in DMSO controls than in MM 1-treated E. coli; type: cell-based, Escherichia coli; conditions: more abundant in DMSO controls than at 0.5×MIC, 405 nm
Procedure: Gene ontology (GO) enrichment analysis of the transcripts displaying significant differences (p<0.05) in abundance between MM- and DMSO-treated cells was performed using Panther (http://pantherdb.org/) using the Fisher's Exact test. Results were corrected for the false discovery rate (FDR).

[5] = cytosolic small ribosomal subunit
[6] = integral component of plasma membrane
[7] = intracellular anatomical structure
[8] = intracellular non-membrane-bounded organelle
[9] = intrinsic component of membrane
[10] = intrinsic component of plasma membrane
[11] = plasma membrane protein complex
[12] = plasma membrane respiratory chain complex I

Structure (SMILES): C[C@@H]1Cc2ccc3ccccc3c2/C1=C1\c2ccccc2Sc2cc(NCCN)ccc21 (racemic) [MM 6, N^1-(9-(2-methyl-2,3-dihydro-1H-cyclopenta[a]naphthalen-1-ylidene)-9H-thioxanthen-3-yl)ethane-1,2-diamine]
- time to reduce cell numbers to limit of detection (C. albicans): 5 min

Structure (SMILES): C[C@@H]1Cc2ccc3ccccc3c2/C1=C1\c2ccccc2Sc2cc(NCCN(C)C)ccc21 [MM 1, N^1N^1-dimethyl-N^2-(9-(2-methyl-2,3-dihydro-1H-cyclopenta[a]naphthalen-1-ylidene)-9H-thioxanthen-3-yl) ethane-1,2-diamine]
- time to reduce persister cells to limit of detection [1]: 3 min
- time to reduce persister cells to limit of detection [2]: 2 min
- transcripts significantly more abundant in MM-treated samples (E. coli transcripts [3]; 0.5×MIC): 1362 transcripts
- transcripts with significantly different levels vs DMSO (E. coli transcripts [3]; 0.5×MIC, p<0.05): 2694 transcripts
- transcripts significantly more abundant in DMSO controls (E. coli transcripts [3]; MM 1 0.5×MIC versus DMSO): 1332 transcripts
- maximum difference in transcript abundance between treatments (E. coli transcripts [3]; MM 1 versus DMSO): ≤ 5 fold
- Transcript Fold Change, argC (E. coli transcripts [3]; gene argC, p<0.05, 5 min): 2.0
- Transcript Fold Change, argF (E. coli transcripts [3]; gene argF, p<0.05, 5 min): 2.2
- Transcript Fold Change, argI (E. coli transcripts [3]; gene argI, p<0.05, 5 min): 2.8
- Transcript Fold Change, artJ (E. coli transcripts [3]; gene artJ, p<0.05, 5 min): 2.5
- Transcript Fold Change, asr (E. coli transcripts [3]; gene asr, p<0.05, 5 min): 2.2
- Transcript Fold Change, bfd (E. coli transcripts [3]; gene bfd, p<0.05, 5 min): 2.0
- Transcript Fold Change, cdh (E. coli transcripts [3]; gene cdh, p<0.05, 5 min): 2.5
- Transcript Fold Change, prpB (E. coli transcripts [3]; gene prpB, p<0.05, 5 min): 5.5
- Transcript Fold Change, prpC (E. coli transcripts [3]; gene prpC, p<0.05, 5 min): 5.0
- Transcript Fold Change, tauA (E. coli transcripts [3]; gene tauA, p<0.05, 5 min): 2.5
- Transcript Fold Change, tynA (E. coli transcripts [3]; gene tynA, p<0.05, 5 min): 2.6
- Transcript Fold Change, yiaW (E. coli transcripts [3]; gene yiaW, p<0.05, 5 min): 2.2
- Transcript Fold Change, ymdF (E. coli transcripts [3]; gene ymdF, p<0.05, 5 min): 2.4
- Transcript Fold Change, ymgC (E. coli transcripts [3]; gene ymgC, p<0.05, 5 min): 2.3
- protein carbonyl levels (E. coli): not significantly changed
- Fold Enrichment (E. coli transcripts [4]; NADH dehydrogenase complex): 3.02
- transcripts significantly enriched in DMSO controls, # (E. coli transcripts [4]; NADH dehydrogenase complex): 15
- Fold Enrichment (E. coli transcripts [4]; Unclassified (−)): .71
- transcripts significantly enriched in DMSO controls, # (E. coli transcripts [4]; Unclassified (−)): 300
- Fold Enrichment (E. coli transcripts [4]; catalytic complex): 1.51
- transcripts significantly enriched in DMSO controls, # (E. coli transcripts [4]; catalytic complex): 129
- Fold Enrichment (E. coli transcripts [4]; cell periphery): 1.15
- transcripts significantly enriched in DMSO controls, # (E. coli transcripts [4]; cell periphery): 454
- Fold Enrichment (E. coli transcripts [4]; cellular anatomical entity): 1.14
- transcripts significantly enriched in DMSO controls, # (E. coli transcripts [4]; cellular anatomical entity): 969
- Fold Enrichment (E. coli transcripts [4]; cytoplasm): 1.18
- transcripts significantly enriched in DMSO controls, # (E. coli transcripts [4]; cytoplasm): 487
- Fold Enrichment (E. coli transcripts [4]; cytosol): 1.28
- transcripts significantly enriched in DMSO controls, # (E. coli transcripts [4]; cytosol): 394
- transcripts significantly enriched in DMSO controls, # (E. coli transcripts [4]; cytosolic large ribosomal subunit): 25
- Fold Enrichment (E. coli transcripts [4]; cytosolic ribosome): 2.64
- transcripts significantly enriched in DMSO controls, # (E. coli transcripts [4]; cytosolic ribosome): 44
- Fold Enrichment (E. coli transcripts [4]; [5]): 2.60
- transcripts significantly enriched in DMSO controls, # (E. coli transcripts [4]; [5]): 19
- Fold Enrichment (E. coli transcripts [4]; integral component of membrane): 1.20
- transcripts significantly enriched in DMSO controls, # (E. coli transcripts [4]; integral component of membrane): 386
- Fold Enrichment (E. coli transcripts [4]; [6]): 1.27
- transcripts significantly enriched in DMSO controls, # (E. coli transcripts [4]; [6]): 216
- Fold Enrichment (E. coli transcripts [4]; [7]): 1.20
- transcripts significantly enriched in DMSO controls, # (E. coli transcripts [4]; [7]): 509
- Fold Enrichment (E. coli transcripts [4]; [8]): 2.09
- transcripts significantly enriched in DMSO controls, # (E. coli transcripts [4]; [8]): 61
- Fold Enrichment (E. coli transcripts [4]; intracellular organelle): 2.01
- transcripts significantly enriched in DMSO controls, # (E. coli transcripts [4]; intracellular organelle): 63
- Fold Enrichment (E. coli transcripts [4]; [9]): 1.19
- transcripts significantly enriched in DMSO controls, # (E. coli transcripts [4]; [9]): 392
- Fold Enrichment (E. coli transcripts [4]; [10]): 1.29
- transcripts significantly enriched in DMSO controls, # (E. coli transcripts [4]; [10]): 225
- Fold Enrichment (E. coli transcripts [4]; large ribosomal subunit): 2.67
- transcripts significantly enriched in DMSO controls, # (E. coli transcripts [4]; large ribosomal subunit): 25
- Fold Enrichment (E. coli transcripts [4]; membrane protein complex): 1.55
- transcripts significantly enriched in DMSO controls, # (E. coli transcripts [4]; membrane protein complex): 98
- Fold Enrichment (E. coli transcripts [4]; membrane): 1.16
- transcripts significantly enriched in DMSO controls, # (E. coli transcripts [4]; membrane): 470
- Fold Enrichment (E. coli transcripts [4]; non-membrane-bounded organelle): 1.68
- transcripts significantly enriched in DMSO controls, # (E. coli transcripts [4]; non-membrane-bounded organelle): 64
- Fold Enrichment (E. coli transcripts [4]; organelle): 1.65
- transcripts significantly enriched in DMSO controls, # (E. coli transcripts [4]; organelle): 66
- Fold Enrichment (E. coli transcripts [4]; oxidoreductase complex): 2.47
- transcripts significantly enriched in DMSO controls, # (E. coli transcripts [4]; oxidoreductase complex): 47
- Fold Enrichment (E. coli transcripts [4]; [11]): 1.51
- transcripts significantly enriched in DMSO controls, # (E. coli transcripts [4]; [11]): 73
- Fold Enrichment (E. coli transcripts [4]; plasma membrane respirasome): 2.99
- transcripts significantly enriched in DMSO controls, # (E. coli transcripts [4]; plasma membrane respirasome): 21
- Fold Enrichment (E. coli transcripts [4]; [12]): 2.99
- transcripts significantly enriched in DMSO controls, # (E. coli transcripts [4]; [12]): 14
- Fold Enrichment (E. coli transcripts [4]; plasma membrane): 1.19
- transcripts significantly enriched in DMSO controls, # (E. coli transcripts [4]; plasma membrane): 431
- Fold Enrichment (E. coli transcripts [4]; protein-containing complex): 1.47
- transcripts significantly enriched in DMSO controls, # (E. coli transcripts [4]; protein-containing complex): 258
- Fold Enrichment (E. coli transcripts [4]; respirasome): 3.04
- transcripts significantly enriched in DMSO controls, # (E. coli transcripts [4]; respirasome): 24
- Fold Enrichment (E. coli transcripts [4]; respiratory chain complex I): 2.99
- transcripts significantly enriched in DMSO controls, # (E. coli transcripts [4]; respiratory chain complex I): 14
- Fold Enrichment (E. coli transcripts [4]; respiratory chain complex): 3.01
- transcripts significantly enriched in DMSO controls, # (E. coli transcripts [4]; respiratory chain complex): 22
- Fold Enrichment (E. coli transcripts [4]; ribonucleoprotein complex): 2.61
- transcripts significantly enriched in DMSO controls, # (E. coli transcripts [4]; ribonucleoprotein complex): 45
- Fold Enrichment (E. coli transcripts [4]; ribosomal subunit): 2.64
- transcripts significantly enriched in DMSO controls, # (E. coli transcripts [4]; ribosomal subunit): 44
- Fold Enrichment (E. coli transcripts [4]; ribosome): 2.51
- transcripts significantly enriched in DMSO controls, # (E. coli transcripts [4]; ribosome): 47
- Fold Enrichment (E. coli transcripts [4]; small ribosomal subunit): 2.60
- transcripts significantly enriched in DMSO controls, # (E. coli transcripts [4]; small ribosomal subunit): 19
